Bounds are passed on as bounds.

For assay [1], the target named is Apoptosis regulator Bcl-2 (Homo sapiens, UniProt P10415). Kind of assay: Inhibition of 5-FAM-Bid-BH3 peptide binding to Bcl2 (unknown origin) pre-incubated for 30 mins followed by further incubation with 5-FAM-Bid-BH3 peptide for 20 mins by fluorescence polarization assay. Background: Fluorescence polarisation rises when a labelled molecule tumbles more slowly, as on binding a larger partner.

Assay [2] deals with Bcl-2-like protein 1 (Homo sapiens, UniProt Q07817). Kind of assay: Inhibition of 5-FAM-Bid-BH3 peptide binding to Bcl-XL (unknown origin) pre-incubated for 30 mins followed by further incubation with 5-FAM-Bid-BH3 peptide for 20 mins by fluorescence polarization assay.
Assay [3] has as its target Induced myeloid leukemia cell differentiation protein Mcl-1 (Homo sapiens, UniProt Q07820). Nature of the assay: Inhibition of 5-FAM-Bid-BH3 peptide binding to Mcl1 (unknown origin) pre-incubated for 30 mins followed by further incubation with 5-FAM-Bid-BH3 peptide for 20 mins by fluorescence polarization assay.
For assay [4], the system named is MDA-MB-231. Nature of the assay: Antiproliferative activity against human MDA-MB-231 cells incubated for 48 hrs by MTT assay. Type of assay: functional, cell-based. Conditions: MDA-MB-231, 48 h; call rule not given here.
Assay [5] relates to PC-3. Kind of assay: Antiproliferative activity against human PC3 cells incubated for 48 hrs by MTT assay. The note with it: PC-3, 48 h. Type of assay: functional, cell-based. (Formazan colour is commonly taken as a measure of viable cells.)
Assay [6] has as its system K562. Nature of the assay: Antiproliferative activity against human K562 cells incubated for 48 hrs by MTT assay. It is filed as functional, cell-based. The note with it: K562, 48 h.

Apoptosis regulator Bcl-2, sequence (P10415 whole entry): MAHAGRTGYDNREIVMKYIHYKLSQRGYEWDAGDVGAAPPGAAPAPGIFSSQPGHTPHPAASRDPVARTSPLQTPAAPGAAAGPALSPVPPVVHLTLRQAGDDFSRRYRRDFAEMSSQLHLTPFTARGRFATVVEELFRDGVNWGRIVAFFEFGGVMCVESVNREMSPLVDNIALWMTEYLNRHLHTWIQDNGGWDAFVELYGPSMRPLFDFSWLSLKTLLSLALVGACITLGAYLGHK
Bcl-2-like protein 1, sequence (Q07817 whole entry): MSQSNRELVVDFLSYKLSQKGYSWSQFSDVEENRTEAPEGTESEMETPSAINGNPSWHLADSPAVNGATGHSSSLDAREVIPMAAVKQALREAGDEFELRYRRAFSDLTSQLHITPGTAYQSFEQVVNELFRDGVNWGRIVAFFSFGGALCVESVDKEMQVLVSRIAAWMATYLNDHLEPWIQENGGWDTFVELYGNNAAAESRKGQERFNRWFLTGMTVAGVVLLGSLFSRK
Induced myeloid leukemia cell differentiation protein Mcl-1, sequence (Q07820 whole entry): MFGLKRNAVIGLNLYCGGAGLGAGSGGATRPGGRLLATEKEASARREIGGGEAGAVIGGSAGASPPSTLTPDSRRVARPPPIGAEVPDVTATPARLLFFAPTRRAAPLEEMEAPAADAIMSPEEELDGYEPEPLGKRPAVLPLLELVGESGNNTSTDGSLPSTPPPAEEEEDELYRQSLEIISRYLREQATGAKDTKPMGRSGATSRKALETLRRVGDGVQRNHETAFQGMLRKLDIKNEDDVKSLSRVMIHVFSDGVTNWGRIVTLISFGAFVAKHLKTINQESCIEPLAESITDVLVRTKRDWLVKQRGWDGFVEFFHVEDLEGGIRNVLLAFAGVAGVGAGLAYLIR

For orientation: Ki means a dissociation constant, usually derived from enzyme kinetics or from competition with a known ligand. Consider `COc1ccc2c(c1)c(CC(=O)NS(=O)(=O)c1ccc(NCCCc3ccccc3)c([N+](=O)[O-])c1)c(C)n2-c1ccc(-c2ccccc2)cc1`, for which the Ki in assay [1] was above 10 µM.

A word on the IC50: it is the concentration that gives 50% inhibition. As for `COc1ccc2c(c1)c(CC(=O)N[C@@H](Cc1ccccc1)C(=O)NS(=O)(=O)c1ccc(Cl)c([N+](=O)[O-])c1)c(C)n2-c1ccc(-c2ccccc2)cc1`, the Ki was 0.58 µM in assay [1], “Not Active” in assay [2] and 0.48 µM in assay [3]. Also, the IC50 in assay [4] was 42.1 µM; in assay [5], 13.9 µM; in assay [6], 13 µM.

The molecule `COc1ccc(S(=O)(=O)NC(=O)[C@H](Cc2c[nH]c3ccccc23)NC(=O)Cc2c(C)n(-c3ccc(-c4ccccc4)cc3)c3ccc(OC)cc23)cc1` gave a Ki in assay [1] above 10 µM.

In turn, `COc1ccc2c(c1)c(CC(=O)N[C@@H](Cc1ccccc1)C(=O)NS(=O)(=O)c1ccccc1)c(C)n2-c1ccc(C)cc1` came in with a Ki in assay [1] above 10 µM.

`COc1ccc2c(c1)c(CC(=O)NS(=O)(=O)c1ccc(Cl)c([N+](=O)[O-])c1)c(C)n2-c1ccc(-c2ccccc2)cc1` displayed a Ki in assay [1] of 0.72 µM.

In assay [1], `COc1ccc2c(c1)c(CC(=O)N[C@@H](Cc1ccc(OCc3ccc([N+](=O)[O-])cc3)cc1)C(=O)NS(=O)(=O)c1ccc(Cl)c([N+](=O)[O-])c1)c(C)n2-c1ccc(C)cc1` displayed a Ki of 0.72 µM.

Turning to `COc1ccc2c(c1)c(CC(=O)NS(=O)(=O)c1ccccc1)c(C)n2-c1ccc(-c2ccccc2)cc1`, in assay [1], the Ki was above 10 µM.

`COc1ccc2c(c1)c(CC(=O)NS(=O)(=O)c1ccc(NCc3ccccc3)c([N+](=O)[O-])c1)c(C)n2-c1ccc(C)cc1` displayed a Ki in assay [1] above 10 µM.

As to `COc1ccc2c(c1)c(CC(=O)N[C@@H](Cc1c[nH]c3ccccc13)C(=O)NS(=O)(=O)c1ccccc1)c(C)n2-c1ccc(-c2ccccc2)cc1`, the Ki in assay [1] was above 10 µM.

`COc1ccc2c(c1)c(CC(=O)NS(=O)(=O)c1ccc(NC3CCCCC3)c([N+](=O)[O-])c1)c(C)n2-c1ccc(-c2ccccc2)cc1` had a Ki in assay [1] above 10 µM.

On to `Cc1ccc(S(=O)(=O)NC(=O)[C@H](Cc2ccccc2)N2C(=O)/C(=C/c3ccc(-c4ccccc4)cc3)SC2=S)cc1`, for which the Ki in assay [1] stood at 0.94 µM; in assay [2] (read-out: Ki) it was 1.2 µM; in assay [3], 0.47 µM. In addition, the half-maximal inhibitory concentration (IC50) in assay [4] is 45.9 µM; in assay [5] it was 30.1 µM; in assay [6], 44 µM.

With `COc1ccc(S(=O)(=O)NC(=O)Cc2c(C)n(-c3ccc(C)cc3)c3ccc(OC)cc23)cc1`, the Ki in assay [1] was above 10 µM.

Regarding `COc1ccc2c(c1)c(CC(=O)NS(=O)(=O)c1ccc(N3CCOCC3)c([N+](=O)[O-])c1)c(C)n2-c1ccc(-c2ccccc2)cc1`, in assay [1], the Ki was above 10 µM.

Take `COc1ccc2c(c1)c(CC(=O)NS(=O)(=O)c1ccc(N3CCN(C)CC3)c([N+](=O)[O-])c1)c(C)n2-c1ccc(C)cc1`: in assay [1], the inhibition constant (Ki) was above 10 µM.

In assay [1], `COc1ccc2c(c1)c(CC(=O)NS(=O)(=O)c1ccc(NCCSc3ccccc3)c([N+](=O)[O-])c1)c(C)n2-c1ccc(-c2ccccc2)cc1` displayed a Ki above 10 µM.

In assay [1], `COc1ccc2c(c1)c(CC(=O)NS(=O)(=O)c1ccc(Cl)c([N+](=O)[O-])c1)c(C)n2-c1ccc(C)cc1` gave a Ki above 10 µM.

`COc1ccc2c(c1)c(CC(=O)N[C@@H](Cc1ccccc1)C(=O)NS(=O)(=O)c1ccc([N+](=O)[O-])cc1)c(C)n2-c1ccc(-c2ccccc2)cc1`: in assay [1], the Ki is 0.91 µM.

In assay [1], `COc1ccc2c(c1)c(CC(=O)NS(=O)(=O)c1ccc(NCc3ccccc3)c([N+](=O)[O-])c1)c(C)n2-c1ccc(-c2ccccc2)cc1` gave a Ki above 10 µM.

As for `COc1ccc2c(c1)c(CC(=O)N[C@@H](Cc1ccccc1)C(=O)NS(=O)(=O)c1ccccc1)c(C)n2-c1ccc(-c2ccccc2)cc1`, the Ki in assay [1] is 0.35 µM; in assay [2], “Not Active”; in assay [3], 0.96 µM. The concentration for half-maximal inhibition (IC50) in assay [4] is 33.5 µM; in assay [5], 17.5 µM; in assay [6], 18.8 µM.

In assay [1], `COc1ccc(S(=O)(=O)NC(=O)Cc2c(C)n(-c3ccc(-c4ccccc4)cc3)c3ccc(OC)cc23)cc1` showed a Ki above 10 µM.

For the molecule `COc1ccc(S(=O)(=O)NC(=O)[C@H](Cc2ccccc2)NC(=O)Cc2c(C)n(-c3ccc(-c4ccccc4)cc3)c3ccc(OC)cc23)cc1`, the Ki in assay [1] was 0.47 µM; in assay [2], “Not Active”; in assay [3], 0.88 µM. Moreover, the figures for the IC50 in assay [4], in assay [5] and in assay [6] were 38.6 µM, 23.5 µM and 27.5 µM, respectively.

`COc1ccc2c(c1)c(CC(=O)NS(=O)(=O)c1ccc([N+](=O)[O-])cc1)c(C)n2-c1ccc(C)cc1` displayed a Ki in assay [1] above 10 µM.

Consider `COc1ccc2c(c1)c(CC(=O)N[C@@H](Cc1c[nH]c3ccccc13)C(=O)NS(=O)(=O)c1ccc(Cl)c([N+](=O)[O-])c1)c(C)n2-c1ccc(-c2ccccc2)cc1`, for which, in assay [1], affinity was put at a Ki of 0.83 µM.

Molecule `COc1ccc2c(c1)c(CC(=O)N[C@@H](Cc1ccccc1)C(=O)NS(=O)(=O)c1ccc(-c3ccccc3)cc1)c(C)n2-c1ccc(-c2ccccc2)cc1` displayed a Ki in assay [1] above 10 µM.

`COc1ccc2c(c1)c(CC(=O)NS(=O)(=O)c1ccc(N3CCOCC3)c([N+](=O)[O-])c1)c(C)n2-c1ccc(C)cc1` had a Ki in assay [1] above 10 µM.

Turning to `COc1ccc2c(c1)c(CC(=O)N[C@@H](Cc1ccc(OCc3ccc([N+](=O)[O-])cc3)cc1)C(=O)NS(=O)(=O)c1ccc(Cl)c([N+](=O)[O-])c1)c(C)n2-c1ccc(-c2ccccc2)cc1`, the Ki in assay [1] is above 10 µM.

The molecule `COc1ccc2c(c1)c(CC(=O)N[C@@H](Cc1ccccc1)C(=O)NS(=O)(=O)c1ccc(Cl)cc1)c(C)n2-c1ccc(-c2ccccc2)cc1` yielded a Ki in assay [1] of 0.91 µM.

Source of the values: ChEMBL document CHEMBL4043209, “1-Phenyl-1H-indole derivatives as a new class of Bcl-2/Mcl-1 dual inhibitors: Design, synthesis, and preliminary biological evaluation” (Bioorg Med Chem, 2017).
